Data published in patent publication US20250195528A1, “DOSE REGIMEN OF VICASINABIN” (Hoffmann-La Roche Inc., priority 2022, published 2025).
Several values for one entry are separate records, joined by “and”; a condition that tells them apart may be missing. Equal entries are not always repeated. Where two headings read alike, the source gives them in different places.

Experiments:
[1] = test system: 131 targets along with 57 CNS- and abuse potential-specific targets; assay: In vitro pharmacology profile on target panels; details: 30 μM
Experimental: The in vitro pharmacology profile of RO6868847 was evaluated at concentration of 30 μM on panels including 131 targets along with 57 CNS- and abuse potential-specific targets.

[2] = target: T1, human CB2 (Homo sapiens, UniProt P34972); assay: Radioligand binding to CB2, CHO cells expressing recombinant CB2
T1 construct: expressed in transfected cells; host or cells: CHO cells

[3] = target: T2, CB2 receptor on B-cells (Homo sapiens, UniProt P34972); assay: In vitro target engagement: CB2 surface expression on peripheral B cells in whole blood (flow cytometry); type: cell-based; details: for Emax: read-out: Mean Emax ± SD (%)
T2 construct: B cells show a low but robust surface expression of CB2; endogenous in cells; host or cells: B cells in human whole blood (healthy participants, diabetic patients)
Text: To monitor target engagement by RO6868847 in humans, a flow cytometry assay was developed utilizing an in-house monoclonal anti-human CB2 antibody in combination with established blood cell markers (CD45, CD14, CD3, and CD19) (1078220). […] As with most GPCR agonists, RO6868847 is expected to trigger CB2 receptor internalization upon CB2 activation, resulting in decreased surface detection. In order to establish this measure as a surrogate target engagement biomarker, freshly isolated whole blood samples (n=9) from healthy participants were incubated in duplicates in vitro for 1 hour at 37° C. with eight different increasing concentrations of RO6868847 and were subsequently subjected to the flow cytometry assay (1078220).
The availability of this in vitro target engagement assay also enabled us to explore the target engagement—exposure response in blood samples obtained from patients with diabetic mellitus (Type 1 and Type 2) and healthy controls matched for age, gender and BMI (Table 6) (1097891). This population was selected as it is similar to the envisaged target patient population for the proof-of-concept Phase II trial, encompassing diabetic patients according to definition by the World Health Organization and/or the American Diabetes Association.

[4] = clinical; details: both, human, plasma, oral
Experimental: Study BP40387 was a Phase I study that was conducted in healthy male and female participants, and included 5 parts. Part 1 (SAD) consisted of an adaptive, single-ascending-dose, investigator/participant-blind, randomized, placebo-controlled, parallel study to investigate the safety, tolerability, and pharmacokinetics of RO6868847. Part 2 (FE), was designed as an open-label, randomized, two-period crossover, single dose investigation of the effect of food on the pharmacokinetics of RO6868847. Part 3 (MAD), was an adaptive, multiple-ascending-dose, investigator/participant-blind, randomized, placebo-controlled, parallel study to investigate the safety, tolerability, and pharmacokinetics of RO6868847 administered once-daily for 14 days. Part 4 (DDI-CYP Induction), was a non-randomized, open-label, fixed-sequence, two-period study to explore RO6868847-mediated CYP induction at 300 mg administered once-daily for 14 days, using midazolam, repaglinide, and bupropion as probe substrates for CYP3A, CYP2C8, and CYP2B6, respectively. […] Overall, in Part 1 (SAD), a total of 33 healthy participants received single oral doses of RO6868847 ranging between 0.75 mg and 300 mg, and 12 participants received placebo under fasting conditions. In Part 2 (FE), 8 participants received a single oral dose of 100 mg RO6868847 once after an overnight fast of at least 10 hours and once within 30 minutes after starting a high-calorie, high-fat breakfast. In Part 3 (MAD), a total of 30 participants received multiple oral doses of 6 mg to 300 mg RO6868847 QD for 14 days, and 10 participants received placebo.
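Throughout, for AUC: phase I trial BP40387 in healthy male and female volunteers.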
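Throughout, for Cmax: phase I trial BP40387 in healthy male and female volunteers.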
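Throughout, for Tmax: phase I trial BP40387 in healthy male and female volunteers.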

T2 sequence (P34972 whole entry): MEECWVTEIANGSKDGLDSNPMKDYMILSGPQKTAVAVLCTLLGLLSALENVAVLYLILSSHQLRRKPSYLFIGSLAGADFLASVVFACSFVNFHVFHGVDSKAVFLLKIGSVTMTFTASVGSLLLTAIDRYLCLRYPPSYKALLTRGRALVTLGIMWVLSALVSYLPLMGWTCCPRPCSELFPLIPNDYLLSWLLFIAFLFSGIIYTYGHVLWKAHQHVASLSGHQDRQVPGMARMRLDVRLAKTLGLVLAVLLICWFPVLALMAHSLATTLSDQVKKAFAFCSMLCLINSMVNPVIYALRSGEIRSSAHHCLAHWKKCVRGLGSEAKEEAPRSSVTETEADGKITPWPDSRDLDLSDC
T1 sequence (P34972 whole entry): as above

## Cn1nnnc1Cn1nnc2c(N3CC[C@H](O)C3)nc(C(C)(C)C)nc21 [RO6868847, (3S)-1-[5-tert-butyl-3-[(1-methyltetrazol-5-yl)methyl]triazolo[4,5-d]pyrimidin-7-yl]pyrrolidin-3-ol]
[1]
  selectivity for CB2 in panels: high selectivity for CB2 in all the panels
[2]
  IC50: 117 ± 26.3 nM
  Ki: 51.3 nM
[3]; DM
  Fold change vs HPs: 1.8x
[3]; DM, n = 8
  Emax: 56.2 ± 11.7%
[3]; Healthy Participants
  Fold change vs HPs: 1
[3]; Healthy Participants, n = 9
  CB2 surface expression on B-cells: concentration-dependent reduction of CB2 surface expression on B-cells
  Mean Emax ± SD (%): 55.0 ± 4.6 (n = 9) %
  Emax: 55 ± 4.6%
[3]; Matched Healthy
  Fold change vs HPs: 2.6 x
[3]; Matched Healthy, n = 8
  Emax: 55.7 ± 6.8%
[3]; Mean IC50 (CB2 on B-cells) ± SD (nM), DM, n = 8, one outlier excluded
  IC50: 172 ± 82 nM
[3]; Mean IC50 (CB2 on B-cells) ± SD (nM), Healthy Participants, n = 9, 1 hour at 37° C.
  IC50: 96.5 ± 27.1 nM
[3]; Mean IC50 (CB2 on B-cells) ± SD (nM), Matched Healthy, n = 8
  IC50: 253 ± 206 nM
[3]; diabetic and matched (elderly) healthy vs younger healthy participants
  fold higher concentration/exposure required for similar CB2R target engagement: 2-3 fold and ~3 fold
[3]; diabetic patients and matched healthy participants
  CB2 receptor internalization on the surface of B-cells: dose-dependent CB2 receptor internalization
[3]; mean IC50 (TE), Healthy participants, 9 donors, converted
  IC50: 96.5 nM
[4]
  half-life: 496 to 2340 min
[4]; 6 mg
  AUC: 870 ng·h/mL
  Cmax: 97.9 ng/mL
  half-life: 496 min
[4]; 20 mg
  AUC: 2610 ng·h/mL
  Cmax: 289 ng/mL
  Tmax: 1.06 h
  half-life: 900 min
[4]; 60 mg
  AUC: 8480 ng·h/mL
  Cmax: 899 ng/mL
  Tmax: 2 h
  half-life: 1900 min
[4]; 200 mg
  AUC: 21400 ng·h/mL
  Cmax: 2380 ng/mL
  Tmax: 3 h
[4]; 300 mg
  AUC: 27100 ng·h/mL
  Cmax: 2970 ng/mL
  Tmax: 2.5 h
  half-life: 2340 min
